Assay results reported in patent publication EP0221541A2, “Quinolonecarboxylic acid derivatives and their preparation” (KYORIN PHARMACEUTICAL CO., LTD., priority 1985, dated 1987).
Converted amounts (≈) assume the structure as drawn. Structures can show the parent of a compound that is named as a salt. Where two headings read alike, the source gives them in different places.

Legend:
Assay type in all cases: cell-based
[1] = test system: S. pyogenes IID 689 (S-8); experiment: MIC, antibacterial spectrum (aerobic bacteria); conditions: Streptococcus pyogenes, IID689; S. pyogenes IID 689 (S-8), Gram +, 10^6 cells/ml, aerobic; read-out: MIC
P. aeruginosa IID 1210 = experiment: MIC, antibacterial spectrum (aerobic bacteria); conditions: Pseudomonas aeruginosa, IID1210; P. aeruginosa IID 1210, Gram -, 10^6 cells/ml, aerobic; read-out: MIC
[2] = test system: Klebsiella pneumoniae KY(GN)6445; experiment: MIC, antibacterial spectrum (aerobic bacteria); conditions: Klebsiella pneumoniae KY(GN)6445, Gram -, 10^6 cells/ml, aerobic; read-out: MIC
S. pyogenes IID 692 = experiment: MIC, antibacterial spectrum (aerobic bacteria); conditions: Streptococcus pyogenes, IID692; S. pyogenes IID 692, Gram +, 10^6 cells/ml, aerobic; read-out: MIC
[3] = test system: Fusobacterium necrophorum S-45; experiment: MIC, antibacterial spectrum (anaerobic bacteria); conditions: S45; Fusobacterium necrophorum S-45, Gram -, 10^6 cells/ml, anaerobic; read-out: MIC
[4] = test system: Clostridium difficile I-E; experiment: MIC, antibacterial spectrum (anaerobic bacteria); conditions: Clostridioides difficile, Gram +, 10^6 cells/ml
[5] = test system: Yersinia enterocolitica IID 981; experiment: MIC, antibacterial spectrum (aerobic bacteria); conditions: IID981; Yersinia enterocolitica IID 981, Gram -, 10^6 cells/ml, aerobic; read-out: MIC
[6] = test system: Eubacterium lentum GAI 5242; experiment: MIC, antibacterial spectrum (anaerobic bacteria); conditions: Eggerthella lenta, GAI5242; Eubacterium lentum GAI 5242, Gram +, 10^6 cells/ml, anaerobic; read-out: MIC
[7] = test system: Staphylococcus aureus 209 P; experiment: MIC, antibacterial spectrum (aerobic bacteria); conditions: Staphylococcus aureus 209 P, Gram +, 10^6 cells/ml, aerobic; read-out: MIC
[8] = test system: Salmonella enteritidis IID 604; experiment: MIC, antibacterial spectrum (aerobic bacteria); conditions: Salmonella enterica; Salmonella enteritidis IID 604, Gram -, 10^6 cells/ml, aerobic; read-out: MIC
[9] = test system: S. aureus IID 670 (Terajima); experiment: MIC, antibacterial spectrum (aerobic bacteria); conditions: Staphylococcus aureus, IID670; S. aureus IID 670 (Terajima), Gram +, 10^6 cells/ml, aerobic; read-out: MIC
B. fragilis 0558 = experiment: MIC, antibacterial spectrum (anaerobic bacteria); conditions: Bacteroides fragilis; B. fragilis 0558, Gram -, 10^6 cells/ml, anaerobic; read-out: MIC
P. mirabilis IID 994 = experiment: MIC, antibacterial spectrum (aerobic bacteria); conditions: Proteus mirabilis, IID994; P. mirabilis IID 994, Gram -, 10^6 cells/ml, aerobic; read-out: MIC
E. coli ATCC 10536 = experiment: MIC, antibacterial spectrum (aerobic bacteria); conditions: Escherichia coli, ATCC10536; E. coli ATCC 10536, Gram -, 10^6 cells/ml, aerobic; read-out: MIC
[10] = test system: Alcaligenes faecalis 0114002; experiment: MIC, antibacterial spectrum (aerobic bacteria); conditions: Alcaligenes faecalis 0114002, Gram -, 10^6 cells/ml
S. aureus Smith = experiment: MIC, antibacterial spectrum (aerobic bacteria); conditions: Staphylococcus aureus; S. aureus Smith, Gram +, 10^6 cells/ml, aerobic; read-out: MIC
S. marcescens GN 7577 = experiment: MIC, antibacterial spectrum (aerobic bacteria); conditions: Serratia marcescens, GN7577; S. marcescens GN 7577, Gram -, 10^6 cells/ml, aerobic; read-out: MIC
[11] = test system: Bacteroides fragilis GM 7000; experiment: MIC, antibacterial spectrum (anaerobic bacteria); conditions: GM7000; Bacteroides fragilis GM 7000, Gram -, 10^6 cells/ml, anaerobic; read-out: MIC
[12] = test system: Proteus vulgaris IFO 3167; experiment: MIC, antibacterial spectrum (aerobic bacteria); conditions: IFO3167; Proteus vulgaris IFO 3167, Gram -, 10^6 cells/ml, aerobic; read-out: MIC
[13] = test system: Bacillus subtilis PCI 219; experiment: MIC, antibacterial spectrum (aerobic bacteria); conditions: PCI219; Bacillus subtilis PCI 219, Gram +, 10^6 cells/ml, aerobic; read-out: MIC
[14] = test system: Propionibacterium acens 11828; experiment: MIC, antibacterial spectrum (anaerobic bacteria); conditions: Propionibacterium acens 11828, Gram +, 10^6 cells/ml, anaerobic; read-out: MIC
S. epidermidis IID 866 = experiment: MIC, antibacterial spectrum (aerobic bacteria); conditions: Staphylococcus epidermidis, IID866; S. epidermidis IID 866, Gram +, 10^6 cells/ml, aerobic; read-out: MIC
C. perfringens KYA 13123 = experiment: microbe, parasite or virus in culture; conditions: Clostridium perfringens, KYA13123
[15] = test system: Morganella morganii IID 602; experiment: MIC, antibacterial spectrum (aerobic bacteria); conditions: IID602, Morganella morganii IID 602, Gram -, 10^6 cells/ml
Pst. micros UPI 5464-1 = experiment: MIC, antibacterial spectrum (anaerobic bacteria); conditions: Parvimonas micra, UPI54641, Pst. micros UPI 5464-1, Gram +, 10^6 cells/ml
K. pneumoniae 1-220S = experiment: MIC, antibacterial spectrum (aerobic bacteria); conditions: Klebsiella pneumoniae, 1220S; K. pneumoniae 1-220S, Gram -, 10^6 cells/ml, aerobic; read-out: MIC
F. varium KYA 8501 = experiment: MIC, antibacterial spectrum (anaerobic bacteria); conditions: Fusobacterium varium, KYA8501, F. varium KYA 8501, Gram -, 10^6 cells/ml
[16] = test system: Peptococcus magnus KY 017; experiment: MIC, antibacterial spectrum (anaerobic bacteria); conditions: Finegoldia magna, KY017; Peptococcus magnus KY 017, Gram +, 10^6 cells/ml, anaerobic; read-out: MIC
[17] = test system: Citrobacter freundii IID 976; experiment: MIC, antibacterial spectrum (aerobic bacteria); conditions: IID976; Citrobacter freundii IID 976, Gram -, 10^6 cells/ml, aerobic; read-out: MIC
[18] = test system: Enterobacter cloacae IID 977; experiment: MIC, antibacterial spectrum (aerobic bacteria); conditions: IID977
[19] = Enterobacter cloacae IID 977, Gram -, 10^6 cells/ml, aerobic, read-out: MIC

Structure (SMILES) | MIC [1] | MIC (P. aeruginosa IID 1210) | MIC [2] | MIC (S. pyogenes IID 692) | MIC [3] | MIC [4] | MIC [5] | MIC [6] | MIC [7] | MIC [8] | MIC [9] | MIC (B. fragilis 0558) | MIC (P. mirabilis IID 994) | MIC (E. coli ATCC 10536) | MIC [10] | MIC (S. aureus Smith) | MIC (S. marcescens GN 7577) | MIC [11] | MIC [12] | MIC [13] | further results
O=C(O)c1cn(C2CC2)c2c(F)c(N3CCC(CNCCO)C3)c(F)cc2c1=O (stereo not drawn) [Exp. 1, 1-Cyclopropyl-6,8-difluoro-1,4-dihydro-7-[3-(2-hydroxyethylaminomethyl)-1-pyrrolidinyl]-4-oxo-3-quinolinecarboxylic acid] | 0.025 mg/L (≈ 0.0614 µM) | 1.56 mg/L (≈ 3.83 µM) | 0.05 mg/L (≈ 0.123 µM) | 0.05 mg/L (≈ 0.123 µM) | 0.2 mg/L (≈ 0.491 µM) | 0.78 mg/L (≈ 1.91 µM) | 0.2 mg/L (≈ 0.491 µM) | 0.78 mg/L (≈ 1.91 µM) | 0.05 mg/L (≈ 0.123 µM) | 0.1 mg/L (≈ 0.245 µM) | 0.05 mg/L (≈ 0.123 µM) | 0.78 mg/L (≈ 1.91 µM) | 0.05 mg/L (≈ 0.123 µM) | 0.05 mg/L (≈ 0.123 µM) | 0.78 mg/L (≈ 1.91 µM) | 0.05 mg/L (≈ 0.123 µM) | 3.13 mg/L (≈ 7.68 µM) | 1.56 mg/L (≈ 3.83 µM) | 0.05 mg/L (≈ 0.123 µM) | 0.0125 mg/L (≈ 0.0307 µM) | MIC [14]: 0.78 mg/L (≈ 1.91 µM); MIC (S. epidermidis IID 866): 0.025 mg/L (≈ 0.0614 µM); MIC (C. perfringens KYA 13123): 0.2 mg/L (≈ 0.491 µM); MIC [15]: 0.39 mg/L (≈ 0.957 µM); MIC (Pst. micros UPI 5464-1): 0.39 mg/L (≈ 0.957 µM); MIC (K. pneumoniae 1-220S): 0.2 mg/L (≈ 0.491 µM); MIC (F. varium KYA 8501): 0.78 mg/L (≈ 1.91 µM); MIC [16]: ≤ 0.05 mg/L; MIC [17]: 0.05 mg/L (≈ 0.123 µM); MIC [18, 19]: 0.2 mg/L (≈ 0.491 µM)
O=C(O)c1cn(C2CC2)c2cc(N3CCC(CNCCO)C3)c(F)cc2c1=O (stereo not drawn) [Exp. 2, l-Cyclopropyl-6-fluoro-l,4-dihydro-7-[3-(2-hydroxyethylaminomethyl)-l-pyrrolidinyl]-4-oxo-3-quinolinecarboxylic acid hydrochloride] | 0.1 mg/L | 6.25 mg/L | 0.39 mg/L | 0.1 mg/L | 0.78 mg/L | 25 mg/L | 0.78 mg/L | 3.13 mg/L | 0.2 mg/L | 0.39 mg/L | 0.2 mg/L | 50 mg/L | 0.39 mg/L | 0.1 mg/L | 6.25 mg/L | 0.39 mg/L | 25 mg/L | 100 mg/L | 0.2 mg/L | ≤ 0.05 mg/L | MIC [14]: 3.13 mg/L; MIC (S. epidermidis IID 866): 0.1 mg/L; MIC (C. perfringens KYA 13123): 1.56 mg/L; MIC [15]: 3.13 mg/L; MIC (Pst. micros UPI 5464-1): 3.13 mg/L; MIC (K. pneumoniae 1-220S): 0.78 mg/L; MIC (F. varium KYA 8501): 25 mg/L; MIC [16]: 0.2 mg/L; MIC [17]: 0.39 mg/L; MIC ([18]; Enterobacter cloacae): 1.56 mg/L
O=C(O)c1cn(C2CC2)c2c(Cl)c(N3CCC(CNCCO)C3)c(F)cc2c1=O (stereo not drawn) [Exp. 3, 8-Chloro-1-cyclopropyl-6-fluoro-1,4-dihydro-7-(3-(2-hydroxyethylaminomethyl)-1-pyrrolidinyl]-4-oxo-3-quinolinecarboxylic acid] | 0.0125 mg/L (≈ 0.0295 µM) | 1.56 mg/L (≈ 3.68 µM) | 0.05 mg/L (≈ 0.118 µM) | 0.0125 mg/L (≈ 0.0295 µM) | 0.1 mg/L (≈ 0.236 µM) | 0.2 mg/L (≈ 0.472 µM) | 0.1 mg/L (≈ 0.236 µM) | 0.2 mg/L (≈ 0.472 µM) | 0.0125 mg/L (≈ 0.0295 µM) | 0.1 mg/L (≈ 0.236 µM) | 0.025 mg/L (≈ 0.059 µM) | 0.2 mg/L (≈ 0.472 µM) | 0.05 mg/L (≈ 0.118 µM) | 0.025 mg/L (≈ 0.059 µM) | 0.39 mg/L (≈ 0.92 µM) | 0.0125 mg/L (≈ 0.0295 µM) | 1.56 mg/L (≈ 3.68 µM) | 0.39 mg/L (≈ 0.92 µM) | 0.025 mg/L (≈ 0.059 µM) | 0.0125 mg/L (≈ 0.0295 µM) | MIC [14]: 0.78 mg/L (≈ 1.84 µM); MIC (S. epidermidis IID 866): 0.0125 mg/L (≈ 0.0295 µM); MIC (C. perfringens KYA 13123): 0.05 mg/L (≈ 0.118 µM); MIC [15]: 0.39 mg/L (≈ 0.92 µM); MIC (Pst. micros UPI 5464-1): 0.1 mg/L (≈ 0.236 µM); MIC (K. pneumoniae 1-220S): 0.1 mg/L (≈ 0.236 µM); MIC (F. varium KYA 8501): 0.39 mg/L (≈ 0.92 µM); MIC [16]: 0.05 mg/L (≈ 0.118 µM); MIC [17]: 0.05 mg/L (≈ 0.118 µM); MIC [18, 19]: 0.1 mg/L (≈ 0.236 µM)
